Data published in US9957282B2, “Crystalline forms of quinolone analogs and their salts” (Senhwa Biosciences, Inc., priority 2015, dated 2018).

Tests used:
[1] = Aqueous solubility of acid salts of Compound I; assay type: physicochemical; details: water, 42 °C, thermodynamic from solid, approximately 50 mg salt in 0.25 mL water (x2, added portion wise), read-out: Aqueous Solubility (Calculated)
Protocol: The mixture was stirred at 42° C. for 3 days and each solution was analyzed by HPLC for concentration and purity.

[2] = Solubility of polymorph forms in organic solvents; assay type: physicochemical
Protocol: Solubility of polymorphs A, C, E, and G of Compound I (free base) were determined by suspending approximately 25 mg of each polymorph in organic solvents and the resulting mixtures were stirred at room temperature or elevated temperatures for 1 h. A sample was filtered and the concentration was determined by HPLC. The remaining suspension was evaporated and the solid was analyzed by XRPD to confirm that the polymorph form in the suspension was still the same polymorph form used for the experiment.

Structure (SMILES) | solubility at 3 days [1] | Relative stability of polymorph, inferred from solubility ([2]; compared with polymorphs C, E, G) | Solubility of polymorph relative to polymorphs A, C, E, G ([2]; methanol and THF (FIG. 20), room temperature or elevated temperatures, stirred 1 h)
Cc1cnc(CNC(=O)c2c(=O)c3ccc(N4CCCN(C)CC4)nc3n3c2sc2ccccc23)cn1 | > 200 mg/mL |  | 
Cc1cnc(CNC(=O)c2c(=O)c3ccc(N4CCCN(C)CC4)nc3n3c2sc2ccccc23)cn1 [Polymorph A] |  | most stable | lowest solubility
